Data reported in ChEMBL document CHEMBL3779883, “Design and Synthesis of Nonpeptide Inhibitors of Hepatocyte Growth Factor Activation” (ACS Med Chem Lett, 2016).
Converted amounts (≈) assume the structure as drawn.

How the values were obtained:
[1] = molecular target: Coagulation factor X (Homo sapiens, UniProt P00742); experiment: Inhibition of human recombinant factor 10a using H2N(EEdansyl)GKQLRVVNGG (KDabcyl)-NH2 as substrate by fluorometric analysis
[2] = molecular target: Prothrombin (Homo sapiens, UniProt P00734); experiment: Inhibition of human recombinant thrombin using H2N(EEdansyl)GKQLRVVNGG (KDabcyl)-NH2 as substrate by fluorometric analysis
[3] = molecular target: Serine protease hepsin (Homo sapiens, UniProt P05981); experiment: Inhibition of human recombinant hepsin using H2N(EEdansyl)GKQLRVVNGG (KDabcyl)-NH2 as substrate by fluorometric analysis
Serine protease hepsin, sequence (P05981 1-162 limits assumed): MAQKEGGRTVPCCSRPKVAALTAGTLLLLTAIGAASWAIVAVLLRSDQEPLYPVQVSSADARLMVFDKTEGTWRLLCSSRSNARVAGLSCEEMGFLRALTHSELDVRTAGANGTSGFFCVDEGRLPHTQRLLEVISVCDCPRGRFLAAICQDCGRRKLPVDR
Serine protease hepsin, sequence (P05981 163-417 limits assumed): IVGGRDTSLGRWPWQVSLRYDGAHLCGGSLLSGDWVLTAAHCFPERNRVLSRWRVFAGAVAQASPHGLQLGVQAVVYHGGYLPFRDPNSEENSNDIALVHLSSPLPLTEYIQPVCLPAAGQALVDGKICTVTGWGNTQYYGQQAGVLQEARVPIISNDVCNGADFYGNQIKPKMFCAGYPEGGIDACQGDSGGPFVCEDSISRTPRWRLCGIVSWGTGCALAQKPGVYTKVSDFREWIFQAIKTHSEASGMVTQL

[4] = molecular target: T1, Hepatocyte growth factor activator serine protease (Homo sapiens, UniProt Q04756); experiment: Inhibition of human recombinant hepatocyte growth factor activator using H2N(EEdansyl)GKQLRVVNGG (KDabcyl)-NH2 as substrate by fluorometric analysis; assay type: single protein
T1 sequence (Q04756 whole entry): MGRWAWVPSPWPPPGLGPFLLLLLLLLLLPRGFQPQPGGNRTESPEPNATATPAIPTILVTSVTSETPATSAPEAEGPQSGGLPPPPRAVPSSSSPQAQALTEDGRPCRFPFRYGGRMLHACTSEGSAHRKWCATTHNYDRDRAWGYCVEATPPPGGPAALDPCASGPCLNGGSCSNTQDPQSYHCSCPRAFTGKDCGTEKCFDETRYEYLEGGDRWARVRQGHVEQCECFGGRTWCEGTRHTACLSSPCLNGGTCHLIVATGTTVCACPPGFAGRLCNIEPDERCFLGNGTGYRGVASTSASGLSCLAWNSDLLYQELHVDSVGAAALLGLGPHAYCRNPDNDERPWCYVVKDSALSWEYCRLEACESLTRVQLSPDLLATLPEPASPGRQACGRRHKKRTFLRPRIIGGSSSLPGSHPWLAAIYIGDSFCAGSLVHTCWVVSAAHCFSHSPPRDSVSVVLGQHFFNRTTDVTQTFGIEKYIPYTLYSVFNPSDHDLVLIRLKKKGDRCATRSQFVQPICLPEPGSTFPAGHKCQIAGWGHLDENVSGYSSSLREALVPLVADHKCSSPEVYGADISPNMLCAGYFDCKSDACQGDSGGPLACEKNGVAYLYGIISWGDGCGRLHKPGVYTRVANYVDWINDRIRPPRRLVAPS

[5] = molecular target: Trypsin (Homo sapiens, UniProt P07477+P07478+P35030); experiment: Inhibition of human recombinant trypsin using H2N(EEdansyl)GKQLRVVNGG (KDabcyl)-NH2 as substrate by fluorometric analysis; assay type: protein assay
[6] = molecular target: T2, Suppressor of tumorigenicity 14 protein (Homo sapiens, UniProt Q9Y5Y6); experiment: Inhibition of human recombinant matripase catalytic domain using H2N(EEdansyl)GKQLRVVNGG (KDabcyl)-NH2 as substrate by fluorometric analysis
T2 sequence (Q9Y5Y6 whole entry): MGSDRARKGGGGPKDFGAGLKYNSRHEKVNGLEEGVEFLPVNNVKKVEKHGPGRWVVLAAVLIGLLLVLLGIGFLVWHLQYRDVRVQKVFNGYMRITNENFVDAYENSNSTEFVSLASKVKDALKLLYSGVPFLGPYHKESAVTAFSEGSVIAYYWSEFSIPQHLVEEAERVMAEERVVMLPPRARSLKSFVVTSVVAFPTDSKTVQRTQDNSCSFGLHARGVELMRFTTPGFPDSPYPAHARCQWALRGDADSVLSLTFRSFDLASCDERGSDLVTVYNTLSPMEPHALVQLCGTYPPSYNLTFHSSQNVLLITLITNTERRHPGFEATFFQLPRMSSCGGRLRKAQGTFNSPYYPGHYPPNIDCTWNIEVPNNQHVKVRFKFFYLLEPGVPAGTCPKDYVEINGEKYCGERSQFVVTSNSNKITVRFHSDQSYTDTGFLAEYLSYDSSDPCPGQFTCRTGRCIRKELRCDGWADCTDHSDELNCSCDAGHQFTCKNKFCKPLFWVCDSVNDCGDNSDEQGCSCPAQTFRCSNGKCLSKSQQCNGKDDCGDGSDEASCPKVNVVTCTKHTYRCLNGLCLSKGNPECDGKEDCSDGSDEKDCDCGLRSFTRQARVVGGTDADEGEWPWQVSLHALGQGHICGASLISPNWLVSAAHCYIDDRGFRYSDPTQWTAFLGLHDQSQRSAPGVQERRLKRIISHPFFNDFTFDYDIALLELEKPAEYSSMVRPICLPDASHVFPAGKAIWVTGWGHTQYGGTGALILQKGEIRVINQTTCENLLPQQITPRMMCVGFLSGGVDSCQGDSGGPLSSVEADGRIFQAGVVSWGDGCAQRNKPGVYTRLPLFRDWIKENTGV

[7] = Half life in human liver microsomes by LC/MS analysis; assay type: ADME
[8] = AUC in mouse at 1 mg/kg, iv; assay type: ADME, organism-based; conditions: in vivo
[9] = Clearance in mouse at 1 mg/kg, iv; assay type: ADME, organism-based; conditions: in vivo
[10] = Kinetic solubility of the compound at pH 7.4; assay type: physicochemical; conditions: buffer, read-out: Kinetic_solubility
[11] = Half life in mouse liver microsomes by LC/MS analysis; assay type: ADME
[12] = Lipophilicity, logD of the compound at pH 7.4 by shake-flask method; assay type: physicochemical; conditions: buffer
[13] = Volume of distribution in mouse at 1 mg/kg, iv; assay type: ADME, organism-based; conditions: in vivo
[14] = Half life in mouse at 1 mg/kg, iv; assay type: ADME, organism-based; conditions: in vivo
[15] = molecular target: Hepatocyte growth factor activator/Serine protease hepsin/Suppressor of tumorigenicity 14 protein (Homo sapiens) (UniProt Q9Y5Y6+P05981+Q04756); experiment: Inhibition of matripase/hepsin/hepatocyte growth factor activator-mediated HGF activation in human 18Co fibroblasts assessed as scattering of human DU145 cells after 24 hrs by crystal violet staining method; assay type: cell-based
Hepatocyte growth factor activator/Serine protease hepsin/Suppressor of tumorigenicity 14 protein (Homo sapiens), sequence (P05981 whole entry, looked up, one chain of several): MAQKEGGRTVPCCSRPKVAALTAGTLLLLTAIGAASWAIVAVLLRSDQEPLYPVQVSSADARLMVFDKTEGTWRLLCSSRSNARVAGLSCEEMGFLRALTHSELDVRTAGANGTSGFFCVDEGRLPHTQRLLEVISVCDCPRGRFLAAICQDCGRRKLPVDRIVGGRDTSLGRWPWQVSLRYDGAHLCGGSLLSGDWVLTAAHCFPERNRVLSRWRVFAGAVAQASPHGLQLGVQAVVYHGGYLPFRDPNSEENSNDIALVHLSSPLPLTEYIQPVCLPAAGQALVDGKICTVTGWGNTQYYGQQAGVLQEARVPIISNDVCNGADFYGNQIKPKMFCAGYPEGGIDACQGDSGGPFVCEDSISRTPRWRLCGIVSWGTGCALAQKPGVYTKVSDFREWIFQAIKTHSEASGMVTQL

[16] = Oral bioavailability in mouse at 5 mg/kg; assay type: ADME, organism-based; conditions: in vivo
[17] = AUC in mouse at 5 mg/kg, po; assay type: ADME, organism-based; conditions: in vivo
[18] = Cmax in mouse at 5 mg/kg, po; assay type: ADME, organism-based; design: dose 5 mg/kg, route oral; conditions: in vivo

Coagulation factor X, sequence (P00742 41-179 limits assumed): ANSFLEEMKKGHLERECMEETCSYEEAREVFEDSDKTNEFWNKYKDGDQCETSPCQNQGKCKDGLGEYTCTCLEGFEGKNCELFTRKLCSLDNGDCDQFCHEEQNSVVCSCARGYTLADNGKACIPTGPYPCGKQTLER
Coagulation factor X, sequence (P00742 235-488 limits assumed): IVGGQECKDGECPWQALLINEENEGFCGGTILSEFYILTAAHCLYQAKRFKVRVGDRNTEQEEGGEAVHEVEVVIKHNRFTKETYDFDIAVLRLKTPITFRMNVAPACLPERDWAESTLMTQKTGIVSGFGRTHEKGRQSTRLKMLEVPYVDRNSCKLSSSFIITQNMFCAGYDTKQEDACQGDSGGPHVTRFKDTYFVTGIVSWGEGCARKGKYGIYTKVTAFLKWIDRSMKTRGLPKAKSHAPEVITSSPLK

| Ki [1] [nM] | Ki [2] [nM] | Ki [3] [nM] | Ki [4] [nM] | Ki [5] [nM] | Ki [6] [nM] | half-life [7] [h] | AUC [8] [ng·h/mL] | clearance [9] [mL/min/kg] | solubility kinetic [10] [µM] | half-life [11] [h] | logD [12] | Vd [13] [L/kg] | half-life [14] [h] | inhibition [15] | bioavailability [16] [%] | AUC [17] [ng·h/mL] | Cmax [18] [ng/mL] | SMILES |
| --- | --- | --- | --- | --- | --- | --- | --- | --- | --- | --- | --- | --- | --- | --- | --- | --- | --- | --- |
| 660 | 13400 | 530 | 440 | 310 | 350 | – | – | – | – | – | – | – | – | – | – | – | – | N=C(N)c1cccc(N2CC(NS(=O)(=O)Cc3ccccc3)CN(CC3CCN(Cc4ccccc4)CC3)C2=O)c1 (stereo unspecified) |
| 22800 | 82200 | 20800 | 39600 | 4800 | 15400 | – | – | – | – | – | – | – | – | – | – | – | – | CC1CN(Cc2ccc(C(=N)N)cc2)C(=O)N(C2CCN(Cc3ccccc3)CC2)C1 (stereo unspecified) |
| 380 | 11600 | 540 | 480 | 430 | 530 | 2.7 | 414 | 38 | 91.6 (≈ 38.4 µg/mL) | 4.93 | -0.49 | 4.49 | 5.8 | Dose-dependent effect | < 1 | 3.31 | 4.45 | CC1CN(CC2CCN(Cc3ccccc3)CC2)C(=O)N(c2cccc(C(=N)N)c2)C1 (stereo unspecified) |
| 400 | > 100000 | 2120 | 1110 | 2770 | 510 | – | – | – | – | – | – | – | – | – | – | – | – | CC1CN(CCC2CCN(Cc3ccccc3)CC2)C(=O)N(c2cccc(C(=N)N)c2)C1 (stereo unspecified) |
| 610 | 17000 | 670 | 520 | 340 | 520 | – | – | – | – | – | – | – | – | – | – | – | – | N=C(N)c1cccc(N2CC(NS(=O)(=O)c3ccccc3)CN(CC3CCN(Cc4ccccc4)CC3)C2=O)c1 (stereo unspecified) |
| 49400 | > 100000 | 15100 | > 100000 | 4800 | 13500 | – | – | – | – | – | – | – | – | – | – | – | – | CC1CN(Cc2cccc(C(=N)N)c2)C(=O)N(C2CCN(Cc3ccccc3)CC2)C1 (stereo unspecified) |
| 750 | > 100000 | 1100 | 1100 | 330 | 470 | – | – | – | – | – | – | – | – | – | – | – | – | N=C(N)c1cccc(N2CC(CNC(=O)c3ccccc3)CN(CC3CCN(Cc4ccccc4)CC3)C2=O)c1 (stereo unspecified) |
| 250 | 7400 | 690 | 230 | 150 | 580 | – | – | – | 47 (≈ 20.5 µg/mL) | – | < 2 | – | – | Dose-dependent effect | – | – | – | N=C(N)c1cccc(N2CC(CO)CN(CC3CCN(Cc4ccccc4)CC3)C2=O)c1 (stereo unspecified) |
| 920 | 29700 | 760 | 1920 | 550 | 1540 | – | – | – | 47 (≈ 24 µg/mL) | – | < 2 | – | – | – | – | – | – | N=C(N)c1cccc(N2CC(OCc3ccccc3)CN(CC3CCN(Cc4ccccc4)CC3)C2=O)c1 (stereo unspecified) |
| 740 | 42300 | 1120 | 380 | 500 | 1280 | – | – | – | – | – | – | – | – | – | – | – | – | N=C(N)c1cccc(N2CC(NC(=O)Cc3ccccc3)CN(CC3CCN(Cc4ccccc4)CC3)C2=O)c1 (stereo unspecified) |
| 200 | 8100 | 920 | 160 | 210 | 850 | – | – | – | 47 (≈ 21.1 µg/mL) | – | < 2 | – | – | Dose-dependent effect | – | – | – | COCC1CN(CC2CCN(Cc3ccccc3)CC2)C(=O)N(c2cccc(C(=N)N)c2)C1 (stereo unspecified) |
| 240 | 35900 | 3400 | 9800 | 780 | 830 | – | – | – | – | – | – | – | – | – | – | – | – | CC1CN(c2cccc(C(=N)N)c2)C(=O)N(C2CCN(Cc3ccccc3)CC2)C1 (stereo unspecified) |
| 510 | > 100000 | 720 | 350 | 420 | 330 | – | – | – | – | – | – | – | – | – | – | – | – | CS(=O)(=O)NC1CN(CC2CCN(Cc3ccccc3)CC2)C(=O)N(c2cccc(C(=N)N)c2)C1 (stereo unspecified) |
| 1230 | > 100000 | 760 | 2490 | 760 | 810 | – | – | – | 47 (≈ 20.5 µg/mL) | – | < 2 | – | – | – | – | – | – | COC1CN(CC2CCN(Cc3ccccc3)CC2)C(=O)N(c2cccc(C(=N)N)c2)C1 (stereo unspecified) |
| 25500 | > 100000 | 61200 | 46500 | 35400 | 48900 | – | – | – | – | – | – | – | – | – | – | – | – | CC1CN(c2ccc(C(=N)N)cc2)C(=O)N(C2CCN(Cc3ccccc3)CC2)C1 (stereo unspecified) |
| 850 | 21900 | 210 | 880 | 390 | 280 | – | – | – | 47 (≈ 19.8 µg/mL) | – | < 2 | – | – | Dose-dependent effect | – | – | – | N=C(N)c1cccc(N2CC(O)CN(CC3CCN(Cc4ccccc4)CC3)C2=O)c1 (stereo unspecified) |
| 180 | 2130 | 560 | 430 | 100 | 850 | – | – | – | 47 (≈ 24.7 µg/mL) | – | < 2 | – | – | – | – | – | – | N=C(N)c1cccc(N2CC(COCc3ccccc3)CN(CC3CCN(Cc4ccccc4)CC3)C2=O)c1 (stereo unspecified) |
| 1550 | > 100000 | 310 | 1080 | 590 | 1510 | – | – | – | – | – | – | – | – | – | – | – | – | N=C(N)c1cccc(N2CC(CNC(=O)Cc3ccccc3)CN(CC3CCN(Cc4ccccc4)CC3)C2=O)c1 (stereo unspecified) |
| 5400 | > 100000 | 53100 | 54600 | 5300 | 40500 | – | – | – | – | – | – | – | – | – | – | – | – | N=C(N)c1cccc(NC(=O)NC2CCN(Cc3ccccc3)CC2)c1 |
